# Data published in PubChem BioAssay AID2060888 (Molecular Pharmacology Branch, DTP, NCI, 2025).
# Test system: 695427-040-R-J1-PDC complex spheroid viability
# Assay: Anticancer human tumor 695427-040-R-J1-PDC patient-derived colon adenocarcinoma cell line growth inhibition [RAS]
# Conditions: for IC50: curve of first compound; for viability, T/C: stronger effect = lower value
# Description: RAS pathway inhibitors in Combinations in Complex Spheroids
# A high-throughput screen of multi-cell type tumor spheroids was designed to identify active combinations of RAS pathway inhibitors and targeted small molecules. Complex spheroids include a stromal component modeled by human endothelial cells (HUVEC) and fibroblasts modeled by human mesenchymal stem cells (MSCs). The concentration ranges selected for each drug and investigational agent were based upon clinically achievable concentrations if the clinical Cmax of the agent was known.
# Compounds. The drugs and investigational agents: abemaciclib (NSC768073), cobimetinib (NSC768068), divarasib (GDC6063, NSC841802), docetaxel (NSC628503), GDC-1971 (RLY-1971, NSC841576), gemcitabine (NSC613327), inavolisib (NSC800729), ipatasertib (NSC767898), KB-0742 (NSC834161), MRTX-1133 (NSC836407), osimertinib (NSC779217), RMC-4630 (NSC839698), RMC-6236 (NSC851965), RMC-6291 (NSC852671), Ro-3306 (NSC812927), sapanisertib (NSC764658), SN-38 (NSC673596), staurosporine (NSC755774), SY5609 (NSC837396), and tovorafenib (DAY101, NSC766906), were obtained from the National Cancer Institute (NCI) Developmental Therapeutics Program Chemical Repository. The FDA-approved anticancer drug set is available from the NCI Developmental Therapeutics Program. […] The stock solutions were prepared in dimethyl sulfoxide (DMSO, Sigma-Aldrich, St. Louis, MO, cat. D2650) at 800-fold the tested concentration and stored at -70 degrees C prior to their use. All drugs and investigational agents were tested over a range starting from a high concentration at or near the clinical Cmax and decreasing in half-log increments. If the clinical Cmax for an agent had not been determined, the highest concentration tested was 10 microM.
# Cell Culture. All cells were maintained in an incubator at 37 degrees C and 5% CO2 with 95% humidity. The PDC lines were cultured according to standard operating procedures established by the NCI PDMR. All PDCs were thawed and cultured in Matrigel-coated flasks prepared with a working solution of 1X Ham's F-12 nutrient mix, without supplementation (Invitrogen, Waltham, MA, cat. 11765054), 100 U/mL penicillin-streptomycin (Invitrogen, cat. 15140122), and 2.5% Matrigel (Corning Inc., Corning, NY, cat. 354248) for the first three passages. The 362531-283-R-J2-PDC and 782815-120-R-J1-PDC lines were cultured in 6C/Colon 1B media, which includes advanced DMEM/F-12 (Thermo Fisher Scientific, cat. 12634028), 10 mM HEPES (Thermo Fisher Scientific, cat. 15630080), 1X GlutaMAX supplement (Thermo Fisher Scientific, cat. 35050061), 0.1 mg/mL primocin (InvivoGen, San Diego, CA, cat. ant-pm-2), 10% defined fetal bovine serum, heat inactivated (HyClone Laboratories Inc., Logan, UT, cat. SH30070.03HI), 50% L-WRN conditioned media (ATCC, cat. CRL-3276), 1.25 mM N-Acetyl-L-cysteine (Sigma-Aldrich, cat. A9165), 10 mM nicotinamide (Sigma-Aldrich, cat. N0636), 1X B-27 supplement (Thermo Fisher Scientific, cat. 17504044), 1X N-2 supplement (Thermo Fisher Scientific, cat. 17502048), 50 ng/mL human EGF (Thermo Fisher Scientific, cat. PHG0311), and 10 microM Y-27632 dihydrochloride (Tocris Bioscience, cat. 1254). The K12877-001-R-J1-PDC line was cultured in 6I media, which includes all 6C/Colon 1B media plus 10 ng/mL human FGF-10 (PeproTech, cat. 100-26), 1 ng/mL human FGF-2 (PeproTech, cat. 100-18B), 1 µM prostaglandin E2 (Tocris Bioscience, cat. 2296), […] hydrocortisone (Sigma-Aldrich, cat. H4001), and […] bovine insulin (Sigma-Aldrich, cat. I6634). The K86415-001-R-J1-PDC line was cultured in 6D media, which includes all 6C/Colon 1B media components minus the L-WRN conditioned media. The 485176-168-R4-J1-PDC was cultured in PANC media, which includes all 6C/Colon 1B media plus 100 ng/mL human FGF-10 (PeproTech, cat. 100-26), 500 nM SB-431542 (Selleckchem, cat. S1067), and 10 nM gastrin (Tocris Bioscience, cat. 3006). […]
# 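Further: viability read after seven days of drug exposure.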
# 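Wherever viability, T/C is given: 100% = DMSO vehicle control viability.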
structure (smiles),measurement,setting,value
CC1(O)CCCC1n1c(=O)c(C(F)F)cc2cnc(NC3CCN(S(C)(=O)=O)CC3)nc21 (configuration not stated) + CCn1c(-c2cc(N3CCN(C)CC3)cnc2C(C)OC)c2c3cc(ccc31)-c1csc(n1)CC(NC(=O)C1CC1C)C(=O)N1CCCC(N1)C(=O)OCC(C)(C)C2,IC50,second compound 0.000949 µM,> 10 µM
same,IC50,second compound 0.003 µM,> 10 µM
same,IC50,second compound 0.00949 µM,> 10 µM
same,IC50,second compound 0.03 µM,4.61 µM
same,IC50,second compound 0.0949 µM,< 0.0316 µM
same,IC50,second compound 0.3 µM,< 0.0316 µM
same,"viability, T/C","second compound 0.000949 µM, first compound 0.0316 µM",112%
same,"viability, T/C","second compound 0.000949 µM, first compound 0.1 µM",74.6%
same,"viability, T/C","second compound 0.000949 µM, first compound 0.316 µM",93.8%
same,"viability, T/C","second compound 0.000949 µM, first compound 1 µM",105%
same,"viability, T/C","second compound 0.000949 µM, first compound 3.16 µM",114%
same,"viability, T/C","second compound 0.000949 µM, first compound 10 µM",74.5%
same,"viability, T/C","second compound 0.003 µM, first compound 0.0316 µM",87.3%
same,"viability, T/C","second compound 0.003 µM, first compound 0.1 µM",92.8%
same,"viability, T/C","second compound 0.003 µM, first compound 0.316 µM",91.8%
same,"viability, T/C","second compound 0.003 µM, first compound 1 µM",92.7%
same,"viability, T/C","second compound 0.003 µM, first compound 3.16 µM",109%
same,"viability, T/C","second compound 0.003 µM, first compound 10 µM",71%
same,"viability, T/C","second compound 0.00949 µM, first compound 0.0316 µM",95.7%
same,"viability, T/C","second compound 0.00949 µM, first compound 0.1 µM",80.8%
same,"viability, T/C","second compound 0.00949 µM, first compound 0.316 µM",85.2%
same,"viability, T/C","second compound 0.00949 µM, first compound 1 µM",78.3%
same,"viability, T/C","second compound 0.00949 µM, first compound 3.16 µM",81.8%
same,"viability, T/C","second compound 0.00949 µM, first compound 10 µM",52%
same,"viability, T/C","second compound 0.03 µM, first compound 0.0316 µM",62.4%
same,"viability, T/C","second compound 0.03 µM, first compound 0.1 µM",71.5%
same,"viability, T/C","second compound 0.03 µM, first compound 0.316 µM",59.1%
same,"viability, T/C","second compound 0.03 µM, first compound 1 µM",57.1%
same,"viability, T/C","second compound 0.03 µM, first compound 3.16 µM",59.8%
same,"viability, T/C","second compound 0.03 µM, first compound 10 µM",32.7%
same,"viability, T/C","second compound 0.0949 µM, first compound 0.0316 µM",44.2%
same,"viability, T/C","second compound 0.0949 µM, first compound 0.1 µM",42.1%
same,"viability, T/C","second compound 0.0949 µM, first compound 0.316 µM",50.3%
same,"viability, T/C","second compound 0.0949 µM, first compound 1 µM",50.8%
same,"viability, T/C","second compound 0.0949 µM, first compound 3.16 µM",50.9%
same,"viability, T/C","second compound 0.0949 µM, first compound 10 µM",25.6%
same,"viability, T/C","second compound 0.3 µM, first compound 0.0316 µM",40.5%
same,"viability, T/C","second compound 0.3 µM, first compound 0.1 µM",42%
same,"viability, T/C","second compound 0.3 µM, first compound 0.316 µM",41.2%
same,"viability, T/C","second compound 0.3 µM, first compound 1 µM",36.5%
same,"viability, T/C","second compound 0.3 µM, first compound 3.16 µM",44.2%
same,"viability, T/C","second compound 0.3 µM, first compound 10 µM",25.2%
